Molecules are shown by their SMILES.

The series can be described thus: gradient 5% acetonitrile 3 min, to 50% in 2 min, to 85% in 15 min, held 3 min, 100 µL/min. To be noted: column: Zorbax Extend-C18 2.1 x 50 mm; eluents: water / acetonitrile, 0.1% formic acid. The gist of the method: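 In both positive and negative ionization mode, a quadrupole time-of-flight mass spectrometer coupled to HPLC analyzed pure standards run in mixtures of ~100 molecules. The Zorbax Extend-C18 column (2.1 × 50 mm, 1.8 μm) was operated at 100 μL/min with water and acetonitrile, each containing 0.1% formic acid. The dead volume was 40 μL and the dwell volume 900 μL. Retention time came from adduct peaks that were computationally picked and individually inspected by hand.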
In turn, `Cn1ncn2cc(S(=O)(=O)NCc3ccccc3Cl)cc2c1=O` gave an RP-LC retention time of 792 s. As for `CCc1ccc(-c2nc(-c3ccc4nnc(C)n4c3)no2)cc1`, the figure is 1080 s. As for `O=C(NCc1ccc2c(c1)OCO2)c1ccc2c(c1)NC(=O)C1CCCCN21` (stereo not drawn), the figure is 765 s; as for `Cc1nsc2ncc(C(=O)N3CCOCC3)c(N3CCC(C(=O)Nc4cccc(Cl)c4)CC3)c12`, 848 s; as for `CCOc1ccccc1-c1nc(-c2cn(Cc3ccc(F)cc3)nn2)no1`, 1020 s. The compound `COC(=O)c1c(NCCc2ccc(Cl)cc2)c2cc(F)ccc2[nH]c1=O` yielded an RP-LC retention time of 857 s.

On to `COc1cccc(N2CCN(C(=O)c3cc(C4CC4)[nH]n3)CC2)c1`, for which the RP-LC retention time is 813 s. The compound `Cc1ccc(Nc2nc(N3CCN(c4ncccn4)CC3)nc3c2C(=O)CCC3)cc1` registered an RP-LC retention time of 1220 s. The result for `CC(=O)N1CCc2sc(S(=O)(=O)N3CCN(c4cc(C)ccc4C)CC3)cc2C1` reads 1010 s. As for `CCOc1ccccc1CNC(=O)Cc1cn(C)c2ncccc12`, the figure is 739 s; as for `CCc1nc2cc(N3CCCC(C(=O)NC(C)c4cccnc4)C3)cnc2nc1CC` (stereo not drawn), 606 s.

The compound `O=C(NCCc1noc(C2CC2)n1)c1cccs1` came in with an RP-LC retention time of 700 s. As for `CC(C)NC(=O)c1ccc(OCC2CCCN(C(=O)c3ccc(F)cc3F)C2)cc1` (stereo not drawn), the figure is 869 s.

In the case of `CN(C)C(CNC(=O)c1cc(=O)c2ccccc2o1)c1ccccc1Cl` (stereo not drawn), the RP-LC retention time was determined as 650 s.

As for `Cc1cc(NC(=O)NCCn2nnc3cc(C(=O)N4CCCC4)ccc32)ccc1Br`, the RP-LC retention time amounted to 740 s. Compound `Cc1ccc(CNC(=O)c2cc3c(s2)CCN(C(=O)c2ccccc2)C3)o1` returned an RP-LC retention time of 881 s.

The compound `CCOC(=O)c1ccc(NC(=O)c2csc(-c3cn(C)c4ncccc34)n2)cc1` displayed an RP-LC retention time of 826 s. `Cc1ccc(N(Cc2nc3nc(C)cc(C)n3n2)C(=O)c2cccs2)cc1` gave an RP-LC retention time of 802 s. The result for `COc1cc2c(cc1OC)C(C(=O)NC1CCCCCC1)C(c1cccnc1)N(C)C2=O` (stereo not drawn) reads 645 s; that for `CN1CCN(CCNC(=O)C2CN(S(=O)(=O)c3ccccc3)CC23CCCCC3)CC1` (stereo not drawn), 573 s; that for `O=C(CN1C(=O)CCCc2cc(S(=O)(=O)N3CCCCCC3)ccc21)N1CCc2ccccc2C1`, 974 s. The compound `O=C(Cn1ncn2nc(-c3cccs3)cc2c1=O)N1CCN(c2ccccn2)CC1` returned an RP-LC retention time of 622 s. Regarding `O=C1CN(S(=O)(=O)c2cc(F)ccc2F)C2(CCCCC2)CN1CC1CC1`, the RP-LC retention time worked out at 959 s.

Regarding `O=S(=O)(c1ccc(-n2cnnn2)cc1)N1CCN(c2ccccn2)CC1`, the RP-LC retention time was 596 s. The result for `CCOC(=O)c1[nH]c(C)c(CN(Cc2ccco2)C(=O)Nc2cccc(F)c2)c1C` reads 990 s; that for `O=C(Nc1ccc(F)cc1)C1CCCN(S(=O)(=O)c2c[nH]c(C(=O)N3CCCC3)c2)C1` (stereo not drawn), 787 s; that for `Cc1ccc(-c2nnc(C3CN(C(=O)C4(c5ccccc5)CC4)CC34CCOCC4)o2)cc1` (stereo not drawn), 830 s.

Compound `Cc1cccc(NC(=O)C2CCN(S(=O)(=O)c3cc(-c4noc(C)n4)cs3)CC2)n1` gave an RP-LC retention time of 768 s. The result for `CCCn1c(=O)sc2cc(S(=O)(=O)N3CCC(C(=O)Nc4cccc(OC)c4)CC3)ccc21` reads 978 s; that for `O=C(Nc1ccc(N2CCCN(C(=O)C3CC3)CC2)cc1)c1ccc(=O)[nH]c1`, 595 s; that for `Nc1cc(C(=O)Nc2ccccc2F)ccc1N1CC2CC(C1)c1cccc(=O)n1C2` (stereo not drawn), 740 s. In turn, `Cc1cnn(CC(=O)N2CCC3(CCC3O)CC2)c1` (stereo not drawn) yielded an RP-LC retention time of 607 s.

With `COc1ccc(CCC(=O)N2CCC[C@@H]2C(=O)NCCc2csc(C)n2)cc1`, the RP-LC retention time was found to be 667 s. Compound `CCCCCOC(=O)c1ccc(Nc2nc(C(=O)OCC)nc3ccccc23)cc1` had an RP-LC retention time of 1160 s. In turn, `CC(C)Cn1cc(CCNC(=O)Nc2cccc(Br)c2)c2cccnc21` returned an RP-LC retention time of 904 s. The result for `COc1ccc(CN2C=C(C(=O)OCc3noc(-c4ccc(C)cc4)n3)C(C)=NS2(=O)=O)cc1` reads 1170 s. As for `O=C(Cc1ccc(F)cc1)NCC#CCN1CCc2ccccc2C1`, the RP-LC retention time came to 565 s. As for `O=C(c1cc(Cl)ccc1F)N1CCc2nc(-c3ccc(Cl)cc3)ncc2C1`, the figure is 1150 s. As for `COc1ccc(S(=O)(=O)N2CCCC(Cn3cnc4cccnc43)C2)cc1OC` (stereo not drawn), the figure is 773 s; as for `CCSc1nc2ccc(NS(=O)(=O)c3cc(F)ccc3F)cc2s1`, 1020 s. As for `O=C(NCc1ccco1)Nc1ccc2c(c1)N(C(=O)c1ccccc1)CC2`, the figure is 756 s.

`CN(C)c1ccc(C(CNC(=O)COc2ccc(Cl)cc2)N(C)C)cc1` (stereo not drawn) gave an RP-LC retention time of 683 s. Compound `CCn1c(=O)sc2cc(S(=O)(=O)N3CCC(C(=O)Nc4ccc(F)c(F)c4)CC3)ccc21` yielded an RP-LC retention time of 955 s. Compound `Cc1cc(OCC(=O)Nc2ccc(F)cc2Cl)nc(N2CCN(c3ccccc3)CC2)n1` returned an RP-LC retention time of 976 s. The result for `Cc1ccc(-c2noc(Cc3nc(-c4ccc(Cl)cc4)cs3)n2)cc1` reads 1040 s. For the compound `CCc1nc2cc3c(cc2n1CC(=O)Nc1ccc2c(c1)OCCCO2)OCCO3`, the RP-LC retention time is 648 s.

In turn, `CCSc1nc(NC(C)C)c2cnn(CCNC(=O)Cc3c(C)noc3C)c2n1` showed an RP-LC retention time of 716 s. Compound `Fc1cc(F)cc(-c2noc3ncnc(N4CCN(c5ccccn5)CC4)c23)c1` gave an RP-LC retention time of 678 s. As for `Cc1ccc2c(Nc3ccc(C)c(C)c3)c(C(=O)N3CCSCC3)cnc2n1`, the figure is 644 s; as for `O=C(Nc1ccc(F)c(Cl)c1)C1CCCN(S(=O)(=O)c2c[nH]c(C(=O)N3CCCC3)c2)C1` (stereo not drawn), 876 s. The result for `COc1ccc(NC(=O)c2cc(C)n3nccc3n2)c(C)c1` reads 886 s. As for `COc1ccc(-c2cn3ccn(-c4ccc(OC)cc4)c(=O)c3n2)cc1`, the figure is 768 s; as for `CC1CCCN(CCCNC(=O)CCCn2c3ccccc3c3cnn(C)c(=O)c32)C1` (stereo not drawn), 626 s; as for `COCCNC(=O)c1ccc2c(c1)CCCN2C(=O)c1ccc(Cl)cc1`, 752 s. `Cc1ccc(C)c(NS(=O)(=O)c2cn(C(C)C)c3ncccc23)c1`: the RP-LC retention time stood at 960 s. The compound `COC(=O)c1ccccc1Nc1c(-c2ccccc2)nc2cnccn12` gave an RP-LC retention time of 962 s.

For `CC(=O)c1ccc(N2CCN(C(=O)C(=O)c3cccn3C)CC2)cc1`, the RP-LC retention time amounted to 735 s. On to `CC(C)C1c2nccn2CCCN1C(=O)c1ccc2c(c1)OCO2` (stereo not drawn), for which the RP-LC retention time turned out to be 603 s. As for `CCOc1nccnc1N1CCC(N(C)C(=O)Cc2c(C)noc2C)C1` (stereo not drawn), the figure is 672 s.

For the compound `CCn1c(=O)c(N2CCC(C(=O)NCCc3c[nH]c4ccc(Cl)cc34)CC2)nc2cccnc21`, the RP-LC retention time turned out to be 993 s. Turning to `Cc1cccc(CNC(=O)c2ncn3c2C(=O)N(C2CC2)C(C)(C(=O)NCc2cccc(C)c2)C3)c1` (stereo not drawn), the RP-LC retention time came to 832 s.

With `O=C(NC1CCCc2c1[nH]c1c(Cl)cccc21)c1ccncc1` (stereo not drawn), the RP-LC retention time stood at 850 s. Consider `COc1ccc(CC(=O)Nc2c(-c3ccc(F)cc3)nc3ccccn23)cc1OC`, for which the RP-LC retention time was 597 s. The result for `Cn1nc(N2CCC(NC(=O)C3CCCCC3)C2)ccc1=O` (stereo not drawn) reads 649 s. `CCn1cc(C2=CCN(S(=O)(=O)c3ccc(C)c(Cl)c3)CC2)c2cccnc21`: the RP-LC retention time stood at 1180 s. For the compound `CCOc1ccccc1NC(=O)CN1C(=O)C2CCCCN2c2ccc(S(=O)(=O)N(C)C)cc21` (stereo not drawn), the RP-LC retention time was determined as 887 s. As for `CC(C)NC(=O)CN1C(=O)C2CCCCN2c2ccc(S(=O)(=O)N(C)C)cc21` (stereo not drawn), the figure is 781 s; as for `Cc1csc(C(=O)NCC2CCN(C(=O)COc3ccccc3)CC2)c1`, 734 s. Compound `CCC(C)(C)C(=O)NC1CCN(C2=NS(=O)(=O)C(c3ccc(C(C)C)cc3)=C2C)CC1` yielded an RP-LC retention time of 1020 s. The result for `CN(C)S(=O)(=O)c1ccc(C(=O)Nc2cccc([N+](=O)[O-])c2)cc1` reads 858 s; that for `O=C(NCc1csc(C2CCCN(C(=O)c3ccccc3)C2)n1)C1CCC1` (stereo not drawn), 712 s; that for `CCC(C)NC(=O)N1CCn2nnc(CCC(=O)N3CCOCC3)c2C1` (stereo not drawn), 598 s.

Compound `COc1cc(CNC(=O)C2CCCN(c3cc(=O)n(C)c(=O)n3C)C2)cc(OC)c1OC` (stereo not drawn) had an RP-LC retention time of 636 s. As for `Cc1nc(OCC(=O)Nc2ccc(Br)cc2F)c2ccccc2n1`, the figure is 820 s; as for `CCn1cc(S(=O)(=O)N2CCCC(c3nnnn3-c3ccccc3)C2)cn1` (stereo not drawn), 807 s. The result for `O=C(Nc1cnc(N2CCOCC2)nc1)c1ccc(Br)cc1` reads 810 s.

As to `COCCNc1c(C(=O)OC)c(=O)[nH]c2c(Cl)cccc12`, the RP-LC retention time came to 645 s. As for `CC(=O)N1CCc2[nH]c3ccc(C(=O)Nc4ccc(N5CCOCC5)cc4)cc3c2C1`, the RP-LC retention time was 654 s.

Source of the values: the METLIN SMRT retention time set (Domingo-Almenara et al. 2019).
